Test results reported in doi:10.1101/2025.03.27.645620v1 (biorxiv, 2025).
Read-outs that look alike come from different tables or passages of the source. Values belong to the compound of their own block, whether it stands above or below them.

Key:
[1] = test system: human PBMCs; assay: cells; conditions: PBMC, 24 h
[2] = test system: murine splenocytes; assay: cells; parameters: species or system mouse splenocytes; conditions: Mus musculus, Splenocyte, 24 h
[3] = test system: hSTING-WT; assay: cells; parameters: species or system THP1; conditions: Homo sapiens, THP-1, 20 h, read-out: SB 11285 EC50 (µM)
[4] = test system: mSTING; assay: cells; parameters: species or system THP1; conditions: Homo sapiens, THP-1, 20 h, read-out: SB 11285 EC50 (µM)
[5] = test system: hSTING AQ; assay: cells; parameters: species or system THP1; conditions: Homo sapiens, THP-1, 20 h, read-out: SB 11285 EC50 (µM)
[6] = biological target: WT-hSTING-CTT (Homo sapiens, UniProt Q86WV6, H232R); assay: surface plasmon resonance; assay type: binding; conditions: labelled compound; biotin-tagged SB […] used
Sequence of WT-hSTING-CTT (Q86WV6 139-379 H232R): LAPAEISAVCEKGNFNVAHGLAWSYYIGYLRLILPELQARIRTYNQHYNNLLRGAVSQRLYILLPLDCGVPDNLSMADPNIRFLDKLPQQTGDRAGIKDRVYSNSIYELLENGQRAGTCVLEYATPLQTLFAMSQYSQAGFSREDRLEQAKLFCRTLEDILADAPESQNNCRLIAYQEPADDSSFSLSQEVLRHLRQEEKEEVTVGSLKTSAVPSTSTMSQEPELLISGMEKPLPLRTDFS

- EC50 ([2]; read-out: SB 11285 EC50 (μM), IFN-α): 0.2 ± 0.1 µM
- EC50 ([2]; read-out: SB 11285 EC50 (μM), IL-18): 0.02 ± 0.02 µM
- EC50 ([2]; read-out: SB 11285 EC50 (μM), IL-31): 0.006 ± 0.003 µM
- EC50 ([2]; read-out: SB 11285 EC50 (μM), IP-10): 0.03 ± 0.02 µM
- EC50 ([2]; read-out: SB 11285 EC50 (μM), TNF-α): 0.04 ± 0.06 µM
- EC50 [3]: 0.008 µM
- EC50 [4]: 0.15 µM
- EC50 [5]: 0.43 µM
Compound: NC1CC2CCC(C1)C2O (mixture of isomers) [SB 11285]
- EC50 ([1]; read-out: SB 11285 EC50(μM), GM-CSF): 0.4 ± 0.3 µM
- EC50 ([1]; read-out: SB 11285 EC50(μM), IFN-α): 0.9 ± 0.7 µM
- EC50 ([1]; read-out: SB 11285 EC50(μM), IFN-β): 0.3 ± 0.2 µM
- EC50 ([1]; read-out: SB 11285 EC50(μM), IFN-γ): 1 ± 0.4 µM
- EC50 ([1]; read-out: SB 11285 EC50(μM), IL-10): 0.03 ± 0.03 µM
- EC50 ([1]; read-out: SB 11285 EC50(μM), IL-12p70): 0.8 ± 0.3 µM
- EC50 ([1]; read-out: SB 11285 EC50(μM), IL-18): 0.7 ± 0.1 µM
- EC50 ([1]; read-out: SB 11285 EC50(μM), MIP-1α): 0.05 ± 0.04 µM
- EC50 ([1]; read-out: SB 11285 EC50(μM), MIP-1β): 0.06 ± 0.09 µM
- EC50 ([1]; read-out: SB 11285 EC50(μM), RANTES): 0.08 ± 0.06 µM

Compound: Nc1ncnc2c1ncn2[C@@H]1O[C@@H]2COP(O)(=S)O[C@@H]3[C@H](O)[C@@H](COP(O)(=S)O[C@H]2[C@H]1O)O[C@H]3n1cnc2c(N)ncnc21 (stereo partly shown) [ADU-S100]
- EC50 ([1]; read-out: EC50(μM), GM-CSF): 2.9 ± 0.4 µM
- EC50 ([1]; read-out: EC50(μM), IFN-α): 2.6 ± 2.9 µM
- EC50 ([1]; read-out: EC50(μM), IFN-β): > 10 µM
- EC50 ([1]; read-out: EC50(μM), IL-6): 2.3 ± 0.6 µM
- EC50 ([1]; read-out: EC50(μM), IL-10): 0.8 ± 0.6 µM
- EC50 ([1]; read-out: EC50(μM), IP-10): 0.4 ± 0.3 µM
- EC50 ([1]; read-out: EC50(μM), MIP-1α): 1.1 ± 0.6 µM
- EC50 ([1]; read-out: EC50(μM), MIP-1β): 1.2 ± 0.8 µM
- EC50 ([1]; read-out: EC50(μM), RANTES): 0.7 ± 0.5 µM
- EC50 ([2]; read-out: EC50 (μM), CXCL1): 1.6 ± 0.9 µM
- EC50 ([2]; read-out: EC50 (μM), IFN-α): > 10 µM
- EC50 ([2]; read-out: EC50 (μM), IL-6): 1.7 ± 1.7 µM
- EC50 ([2]; read-out: EC50 (μM), IL-17A): 0.3 ± 0.2 µM
- EC50 ([2]; read-out: EC50 (μM), IL-18): 0.6 ± 0.4 µM
- EC50 ([2]; read-out: EC50 (μM), MIP-1α): 0.5 ± 0.4 µM
- EC50 ([2]; read-out: EC50 (μM), MIP-1β): 0.7 ± 0.3 µM
- EC50 ([2]; read-out: EC50 (μM), RANTES): 0.1 ± 0.1 µM
- EC50 ([2]; read-out: EC50 (μM), TNF-α): 1.4 ± 0.5 µM

- Kd [6]: ~122 nM
Compound: biotin-tagged SB 11285
